Experimental data published in patent publication US12122778B2, “Activating pyruvate kinase R” (Novo Nordisk Health Care AG, priority 2018, dated 2024).

Columns and labels:
PKR(G332S) = PKR(G332S) (Homo sapiens, UniProt P30613, G332S); experiment: Luminescence Biochemical Assay (Kinase Glo Plus), PKR G332S mutant; settings: with FBP; for activation at 1.54 µM: 1.54 μM compound, read-out: AC50 LUM KGP FBP % Fold@1.54 μM mean; for AC50: read-out: AC50 LUM KGP FBP AC50 μM gmean (column A); for Emax: read-out: AC50 LUM KGP FBP MAX % FOLD mean
PKR(G332S), sequence (P30613 whole entry G332S): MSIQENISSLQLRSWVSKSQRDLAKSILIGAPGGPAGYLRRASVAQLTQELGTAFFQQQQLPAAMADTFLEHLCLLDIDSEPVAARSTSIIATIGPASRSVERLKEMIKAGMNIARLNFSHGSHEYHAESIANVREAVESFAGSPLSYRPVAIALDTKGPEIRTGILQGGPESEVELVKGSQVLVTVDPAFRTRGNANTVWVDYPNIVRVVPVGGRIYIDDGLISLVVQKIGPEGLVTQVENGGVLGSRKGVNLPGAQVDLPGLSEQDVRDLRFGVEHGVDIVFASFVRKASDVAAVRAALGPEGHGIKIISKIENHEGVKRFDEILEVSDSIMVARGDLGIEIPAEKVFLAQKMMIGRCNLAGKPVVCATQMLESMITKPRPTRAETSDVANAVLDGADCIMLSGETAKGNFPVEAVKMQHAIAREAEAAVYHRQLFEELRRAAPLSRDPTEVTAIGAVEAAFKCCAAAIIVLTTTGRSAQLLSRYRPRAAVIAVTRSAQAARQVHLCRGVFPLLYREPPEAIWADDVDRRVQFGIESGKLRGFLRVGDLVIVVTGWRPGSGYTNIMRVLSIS

PKR(R510Q) = PKR(R510Q) (Homo sapiens, UniProt P30613, R510Q); experiment: Luminescence Biochemical Assay (Kinase Glo Plus), PKR R510Q mutant; settings: without FBP; for activation at 1.54 µM: 1.54 μM compound, read-out: AC50 LUM KGP woFBP % Fold@1.54 μM mean; for AC50: read-out: AC50 LUM KGP woFBP AC50 μM gmean; for Emax: read-out: AC50 LUM KGP woFBP MAX % FOLD mean
PKR(R510Q), sequence (P30613 whole entry R510Q): as the sequence (P30613 whole entry G332S) above, with S332G, R510Q counted along it

PKR(wt) = PKR(wt) (Homo sapiens, UniProt P30613); experiment: Luminescence Biochemical Assay (Kinase Glo Plus), wild type PKR; settings: without FBP; for activation at 1.54 µM: 1.54 μM compound, read-out: AC50 LUM KGP woFBP % Fold@1.54 μM mean; for AC50: read-out: AC50 LUM KGP woFBP AC50 μM gmean; for Emax: read-out: AC50 LUM KGP woFBP MAX % FOLD mean
PKR(wt), sequence (P30613 whole entry): as the sequence (P30613 whole entry G332S) above, with S332G counted along it

| Compound | activation at 1.54 µM (PKR(G332S)) | AC50 (PKR(G332S)) | Emax (PKR(G332S)) | activation at 1.54 µM (PKR(R510Q)) | AC50 (PKR(R510Q)) | Emax (PKR(R510Q)) | activation at 1.54 µM (PKR(wt)) | AC50 (PKR(wt)) | Emax (PKR(wt)) |
| --- | --- | --- | --- | --- | --- | --- | --- | --- | --- |
| O=C(C(O)c1ccc(C(F)(F)F)cc1)N1CC2=C(C1)CN(S(=O)(=O)c1ccc(OC(F)F)cc1)C2 (stereo not drawn) [Example 18-32, 1-{5-[4-(Difluoromethoxy)benzenesulfonyl]-1H,2H,3H,4H,5H,6H-pyrrolo[3,4-c]pyrrol-2-yl}-2-hydroxy-2-[4-(trifluoromethyl)phenyl]ethan-1-one] | 75 to 250% | 0.1 to 1 µM | 75 to 250% | 75 to 250% | 0.1 to 1 µM | 250 to 500% | 75 to 250% | 0.1 to 1 µM | 250 to 500% |
| Cc1nn(C)c(Cl)c1S(=O)(=O)N1CC2=C(CN(C(=O)[C@H](O)c3ccccc3)C2)C1 [Example 18-43, (2R)-1-{5-[(5-chloro-1,3-dimethyl-1H-pyrazol-4-yl)sulfonyl]-1H,2H,3H,4H,5H,6H-pyrrolo[3,4-c]pyrrol-2-yl}-2-hydroxy-2-phenylethan-1-one] | 75 to 250% | 1 to 40 µM | 75 to 250% | 75 to 250% | 1 to 40 µM | 75 to 250% | 75 to 250% | 1 to 40 µM | 75 to 250% |
| O=C([C@H]1CCCO1)N1CC2=C(C1)CN(S(=O)(=O)c1cccnc1)C2 [Example 18-59, 3-({5-[(2R)-oxolane-2-carbonyl]-1H,2H,3H,4H,5H,6H-pyrrolo[3,4-c]pyrrol-2-yl}sulfonyl)pyridine] | 75 to 250% | 1 to 40 µM | 75 to 250% | 75 to 250% | 1 to 40 µM | 75 to 250% | 75 to 250% | 1 to 40 µM | 75 to 250% |
| O=C([C@H]1CCCO1)N1CC2=C(C1)CN(S(=O)(=O)c1ccccn1)C2 [Example 18-60, 2-({5-[(2R)-oxolane-2-carbonyl]-1H,2H,3H,4H,5H,6H-pyrrolo[3,4-c]pyrrol-2-yl}sulfonyl)pyridine] | 75 to 250% | 1 to 40 µM | 75 to 250% | 75 to 250% | 1 to 40 µM | 250 to 500% | 75 to 250% | 1 to 40 µM | 250 to 500% |
| Cc1ccc(CC(=O)N2CC3=C(C2)CN(S(=O)(=O)c2ccccn2)C3)cn1 [Example 18-61, 2-(6-Methylpyridin-3-yl)-1-[5-(pyridine-2-sulfonyl)-1H,2H,3H,4H,5H,6H-pyrrolo[3,4-c]pyrrol-2-yl]ethan-1-one] | 75 to 250% | 1 to 40 µM | 75 to 250% | 75 to 250% | 1 to 40 µM | 250 to 500% | 75 to 250% | 1 to 40 µM | 250 to 500% |
| O=C([C@H](O)c1ccc(F)cc1)N1CC2=C(C1)CN(S(=O)(=O)c1cccnc1)C2 [Example 18-62, (2R)-2-(4-fluorophenyl)-2-hydroxy-1-[5-(pyridine-3-sulfonyl]-1H,2H,3H,4H,5H,6H-pyrrolo[3,4-c]pyrrol-2-yl]ethan-1-one] | 75 to 250% | 1 to 40 µM | 75 to 250% | 75 to 250% | 1 to 40 µM | 250 to 500% | 75 to 250% | 0.1 to 1 µM | 75 to 250% |
| O=C([C@H](O)c1ccc(F)cc1)N1CC2=C(C1)CN(S(=O)(=O)c1ccccn1)C2 [Example 18-63, (2R)-2-(4-fluorophenyl)-2-hydroxy-1-[5-(pyridine-2-sulfonyl)-1H,2H,3H,4H,5H,6H-pyrrolo[3,4-c]pyrrol-2-yl]ethan-1-one] | 75 to 250% | 1 to 40 µM | 75 to 250% | 250 to 50000% | 0.1 to 1 µM | 250 to 500% | 75 to 250% | 0.1 to 1 µM | 250 to 500% |
| O=C([C@H](O)c1ccc(F)cc1)N1CC2=C(C1)CN(S(=O)(=O)c1ccc(C(F)(F)F)nc1)C2 [Example 18-64, (2R)-2-(4-fluorophenyl)-2-hydroxy-1-(5-{[6-(trifluoromethyl)pyridin-3-yl]sulfonyl}-1H,2H,3H,4H,5H,6H-pyrrolo[3,4-c]pyrrol-2-yl)ethan-1-one] | 75 to 250% | 1 to 40 µM | 75 to 250% | 75 to 250% | 1 to 40 µM | 75 to 250% | 75 to 250% | 1 to 40 µM | 75 to 250% |
| O=C(N1CC2=C(C1)CN(S(=O)(=O)c1ccccn1)C2)C1(O)CC1 [Example 18-65, 1-[5-(Pyridine-2-sulfonyl)-1H,2H,3H,4H,5H,6H-pyrrolo[3,4-c]pyrrole-2-carbonyl]cyclopropan-1-ol] | 75 to 250% | 1 to 40 µM | 75 to 250% | 75 to 250% | 1 to 40 µM | 75 to 250% | 75 to 250% | 1 to 40 µM | 250 to 500% |
| O=C(Cc1ccc(F)cc1F)N1CC2=C(C1)CN(S(=O)(=O)c1cccnc1)C2 [Example 18-66, 2-(2,4-Difluorophenyl)-1-[5-(pyridine-3-sulfonyl)-1H,2H,3H,4H,5H,6H-pyrrolo[3,4-c]pyrrol-2-yl]ethan-1-one] | 75 to 250% | 1 to 40 µM | 75 to 250% | 75 to 250% | 1 to 40 µM | 250 to 500% | 75 to 250% | 1 to 40 µM | 250 to 500% |
| O=C(Cc1ccc(F)cc1F)N1CC2=C(C1)CN(S(=O)(=O)c1ccccn1)C2 [Example 18-67, 2-(2,4-Difluorophenyl)-1-[5-(pyridine-2-sulfonyl)-1H,2H,3H,4H,5H,6H-pyrrolo[3,4-c]pyrrol-2-yl]ethan-1-one] | 75 to 250% | 0.1 to 1 µM | 75 to 250% | 75 to 250% | 1 to 40 µM | 250 to 500% | 75 to 250% | 1 to 40 µM | 250 to 500% |

The remaining lines, values ahead:

| activation at 1.54 µM (PKR(G332S)) | AC50 (PKR(G332S)) | Emax (PKR(G332S)) | activation at 1.54 µM (PKR(R510Q)) | AC50 (PKR(R510Q)) | Emax (PKR(R510Q)) | activation at 1.54 µM (PKR(wt)) | AC50 (PKR(wt)) | Emax (PKR(wt)) | Compound |
| --- | --- | --- | --- | --- | --- | --- | --- | --- | --- |
| 75 to 250% | 1 to 40 µM | 75 to 250% | 75 to 250% | 0.1 to 1 µM | 75 to 250% | 75 to 250% | 0.1 to 1 µM | 75 to 250% | N#Cc1ccccc1S(=O)(=O)N1CC2=C(CN(C(=O)[C@H](O)c3ccccc3)C2)C1 [Example 18-47, 2-({5-[(2R)-2-hydroxy-2-phenylacetyl]-1H,2H,3H,4H,5H,6H-pyrrolo[3,4-c]pyrrol-2-yl}sulfonyl)benzonitrile] |
| 75 to 250% | 1 to 40 µM | 75 to 250% | 75 to 250% | 0.1 to 1 µM | 250 to 500% | 75 to 250% | 0.1 to 1 µM | 75 to 250% | Cc1ccc(S(=O)(=O)N2CC3=C(CN(C(=O)[C@H](O)c4ccccc4)C3)C2)cc1F [Example 18-51, (2R)-1-[5-(3-fluoro-4-methylbenzenesulfonyl)-1H,2H,3H,4H,5H,6H-pyrrolo[3,4-c]pyrrol-2-yl]-2-hydroxy-2-phenylethan-1-one] |
| 75 to 250% | 1 to 40 µM | 75 to 250% | 75 to 250% | 0.1 to 1 µM | 75 to 250% | 75 to 250% | 0.1 to 1 µM | 75 to 250% | O=C([C@H](O)c1ccccc1)N1CC2=C(C1)CN(S(=O)(=O)c1cc(F)cc(F)c1)C2 [Example 18-52, (2R)-1-[5-(3,5-difluorobenzenesulfonyl)-1H,2H,3H,4H,5H,6H-pyrrolo[3,4-c]pyrrol-2-yl]-2-hydroxy-2-phenylethan-1-one] |
| 75 to 250% | 1 to 40 µM | 75 to 250% | 75 to 250% | 0.1 to 1 µM | 75 to 250% | 75 to 250% | 0.1 to 1 µM | 75 to 250% | O=C([C@H](O)c1ccccc1)N1CC2=C(C1)CN(S(=O)(=O)c1ccc(F)c(F)c1)C2 [Example 18-53, (2R)-1-[5-(3,4-difluorobenzenesulfonyl)-1H,2H,3H,4H,5H,6H-pyrrolo[3,4-c]pyrrol-2-yl]-2-hydroxy-2-phenylethan-1-one] |
| 75 to 250% | 1 to 40 µM | 75 to 250% | 75 to 250% | 1 to 40 µM | 75 to 250% | 75 to 250% | 1 to 40 µM | 75 to 250% | Cc1cccc(Cl)c1S(=O)(=O)N1CC2=C(CN(C(=O)[C@@H](O)c3ccccc3)C2)C1 [Example 18-54, (2S)-1-[5-(2-chloro-6-methylbenzenesulfonyl)-1H,2H,3H,4H,5H,6H-pyrrolo[3,4-c]pyrrol-2-yl]-2-hydroxy-2-phenylethan-1-one] |
| 75 to 250% | 1 to 40 µM | 75 to 250% | 75 to 250% | 1 to 40 µM | 250 to 500% | 75 to 250% | 1 to 40 µM | 75 to 250% | CC(=O)Nc1ccc(S(=O)(=O)N2CC3=C(CN(C(=O)[C@H](O)c4ccccc4)C3)C2)cc1 [Example 18-56, N-[4-({5-[(2R)-2-hydroxy-2-phenylacetyl]-1H,2H,3H,4H,5H,6H-pyrrolo[3,4-c]pyrrol-2-yl}sulfonyl)phenyl]acetamide] |
| 75 to 250% | 1 to 40 µM | 75 to 250% | 75 to 250% | 1 to 40 µM | 75 to 250% | 75 to 250% | 1 to 40 µM | 75 to 250% | COc1cc(Cl)ccc1S(=O)(=O)N1CC2=C(CN(C(=O)[C@H](O)c3ccccc3)C2)C1 [Example 18-58, (2R)-1-[5-(4-chloro-2-methoxybenzenesulfonyl)-1H,2H,3H,4H,5H,6H-pyrrolo[3,4-c]pyrrol-2-yl]-2-hydroxy-2-phenylethan-1-one] |
